Results reported in patent US20260062387A1, “SALT-INDUCIBLE KINASE INHIBITOR COMPOUND AND PHARMACEUTICAL COMPOSITION INCLUDING THE SAME” (MITSUBISHI TANABE PHARMA CORPORATION, priority 2023, published 2026).
Marks after values point to notes of the source that are not given here.

How the values were obtained:
GST-tagged SIK1 = GST-tagged SIK1 (Homo sapiens (Human), UniProt P57059); experiment: SIK1 inhibition test (ADP-Glo Max Assay); assay type: biochemical; details: enzyme 20 nM, AMARA Peptide 200 μM, ATP 1 mM, 2 hours room temperature
Method in brief: (§1)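 ADP formed was detected by luciferase luminescence after a 2 h room-temperature reaction with 1 mM ATP, 5 mM MgCl2 and AMARA peptide at 200 μM (SIK1, SIK2) or 100 μM (SIK3). Final GST-enzyme levels were 20 nM SIK1, 3 nM SIK2 and 100 nM SIK3. IC50 came from 16-point concentration-response data.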

[1] = test system: TNF-α production in LPS-stimulated human monocytes; experiment: TNF-α production inhibition test in LPS-stimulated human monocytes; assay type: cell-based; details: Monocyte, LPS 100 ng/mL, 4 hours
Method: (§2) The compound of Example 106 was used as the test compound.
Cryopreserved mononuclear cells derived from human peripheral blood (LONZA K. K.) were thawed at 37° C., and human monocytes were isolated using CD14 Microfleads (Miltenyi Biotec). The isolated human monocytes were mixed with a culture medium (RPMI 1640, 10% FBS, penicillin, streptomycin), and a DMSO solution of a concentration of the test compound was added. The mixture was incubated at 37° C. for 30 minutes. After the incubation, lipopolysaccharide (LPS; Sigma Aldrich) was added so that the final concentration would be 100 ng/mL. The mixture was incubated at 37° C. for 4 hours. After the incubation, the supernatant was recovered and cryopreserved at −80° C. The cryopreserved supernatant was thawed and the amount of TNF-α production in the supernatant was measured using CBA Human TNF Flex Set (BD Bioscience).
Inhibitory ratio (%) was calculated by: % Inhibition={1−(amount of TNF-α production in sample−amount of TNF-α production without stimulus (DMSO added, not LPS-stimulated))/(amount of TNF-α production in control (DMSO added, LPS-stimulated)−amount of TNF-α production without stimulus (DMSO added, not LPS-stimulated))}×100. The inhibitory concentration IC50was calculated based on 4 data values obtained in the concentration response test.

GST-tagged SIK3 = GST-tagged SIK3 (Homo sapiens (Human), UniProt Q9Y2K2); experiment: SIK3 inhibition test (ADP-Glo Max Assay); assay type: biochemical; details: enzyme 100 nM, AMARA Peptide 100 μM, ATP 1 mM, 2 hours room temperature
Method in brief: as §1

GST-tagged SIK2 = GST-tagged SIK2 (Homo sapiens (Human), UniProt Q9H0K1); experiment: SIK2 inhibition test (ADP-Glo Max Assay); assay type: biochemical; details: enzyme 3 nM, AMARA Peptide 200 μM, ATP 1 mM, 2 hours room temperature
Method in brief: as §1

[2] = test system: TNF-α in serum of LPS-stimulated mice; experiment: TNF-α increase inhibition test in LPS-stimulated mouse serums; assay type: in vivo, BALB/c mice; details: 1 mg/kg oral, LPS intraperitoneal 30 minutes later, serum 1.5 hours later
Method: as §2
Six-week old male BALB/c mice were orally administered with a suspension (10 mL/kg) of a concentration of the test compound in 0.5% methylcellulose (MC) solution. 30 Minutes later, […] of LPS (Sigma Aldrich) was intraperitoneally administered. […] The amount of TNF-α production in the serum was measured using CBA […] TNF Flex Set (BD Bioscience).
The inhibitory ratio (%) was calculated by: % Inhibition={1−(amount of TNF-α production in sample−average amount of TNF-α production without stimulus (MC administered, not LPS-stimulated)/(average amount of TNF-α production in control (MC administered, LPS-stimulated)−average amount of TNF-α production without stimulus (MC administered, not LPS-stimulated))}×100. The results are described in Table 4 below.

Chain of GST-tagged SIK3 (Q9Y2K2 whole entry): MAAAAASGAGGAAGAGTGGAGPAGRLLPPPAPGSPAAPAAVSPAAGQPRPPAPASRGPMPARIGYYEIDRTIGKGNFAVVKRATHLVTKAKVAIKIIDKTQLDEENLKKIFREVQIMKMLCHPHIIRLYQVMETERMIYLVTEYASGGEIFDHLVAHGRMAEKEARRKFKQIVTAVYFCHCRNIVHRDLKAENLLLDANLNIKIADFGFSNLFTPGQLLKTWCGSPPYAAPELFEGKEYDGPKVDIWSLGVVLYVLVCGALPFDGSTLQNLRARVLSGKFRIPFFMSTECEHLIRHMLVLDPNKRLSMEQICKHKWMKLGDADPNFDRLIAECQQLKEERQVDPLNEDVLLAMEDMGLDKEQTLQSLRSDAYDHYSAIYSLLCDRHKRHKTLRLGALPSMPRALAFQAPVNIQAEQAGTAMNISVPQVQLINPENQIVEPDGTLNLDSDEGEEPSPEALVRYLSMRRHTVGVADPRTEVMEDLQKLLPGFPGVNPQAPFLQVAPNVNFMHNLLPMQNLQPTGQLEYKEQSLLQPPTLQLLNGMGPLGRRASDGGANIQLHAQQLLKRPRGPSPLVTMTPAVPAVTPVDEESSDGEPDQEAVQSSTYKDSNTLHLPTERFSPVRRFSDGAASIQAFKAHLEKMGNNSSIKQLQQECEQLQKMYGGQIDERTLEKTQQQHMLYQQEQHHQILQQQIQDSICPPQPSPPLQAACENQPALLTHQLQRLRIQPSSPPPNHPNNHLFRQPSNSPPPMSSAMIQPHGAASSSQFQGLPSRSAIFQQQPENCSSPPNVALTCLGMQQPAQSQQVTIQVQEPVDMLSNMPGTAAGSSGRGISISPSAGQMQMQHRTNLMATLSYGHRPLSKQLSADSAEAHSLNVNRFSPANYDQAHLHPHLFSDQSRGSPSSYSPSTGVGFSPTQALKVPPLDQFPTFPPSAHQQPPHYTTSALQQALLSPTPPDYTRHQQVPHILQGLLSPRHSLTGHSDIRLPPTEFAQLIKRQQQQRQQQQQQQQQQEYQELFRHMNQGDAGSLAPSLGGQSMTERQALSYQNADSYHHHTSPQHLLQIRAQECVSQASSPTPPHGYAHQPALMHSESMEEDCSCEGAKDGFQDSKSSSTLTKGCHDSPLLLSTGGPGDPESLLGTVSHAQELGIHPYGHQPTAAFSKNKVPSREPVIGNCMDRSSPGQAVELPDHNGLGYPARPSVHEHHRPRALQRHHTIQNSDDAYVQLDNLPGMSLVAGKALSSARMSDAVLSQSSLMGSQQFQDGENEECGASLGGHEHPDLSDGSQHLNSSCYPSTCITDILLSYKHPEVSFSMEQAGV
Chain of GST-tagged SIK1 (P57059 whole entry): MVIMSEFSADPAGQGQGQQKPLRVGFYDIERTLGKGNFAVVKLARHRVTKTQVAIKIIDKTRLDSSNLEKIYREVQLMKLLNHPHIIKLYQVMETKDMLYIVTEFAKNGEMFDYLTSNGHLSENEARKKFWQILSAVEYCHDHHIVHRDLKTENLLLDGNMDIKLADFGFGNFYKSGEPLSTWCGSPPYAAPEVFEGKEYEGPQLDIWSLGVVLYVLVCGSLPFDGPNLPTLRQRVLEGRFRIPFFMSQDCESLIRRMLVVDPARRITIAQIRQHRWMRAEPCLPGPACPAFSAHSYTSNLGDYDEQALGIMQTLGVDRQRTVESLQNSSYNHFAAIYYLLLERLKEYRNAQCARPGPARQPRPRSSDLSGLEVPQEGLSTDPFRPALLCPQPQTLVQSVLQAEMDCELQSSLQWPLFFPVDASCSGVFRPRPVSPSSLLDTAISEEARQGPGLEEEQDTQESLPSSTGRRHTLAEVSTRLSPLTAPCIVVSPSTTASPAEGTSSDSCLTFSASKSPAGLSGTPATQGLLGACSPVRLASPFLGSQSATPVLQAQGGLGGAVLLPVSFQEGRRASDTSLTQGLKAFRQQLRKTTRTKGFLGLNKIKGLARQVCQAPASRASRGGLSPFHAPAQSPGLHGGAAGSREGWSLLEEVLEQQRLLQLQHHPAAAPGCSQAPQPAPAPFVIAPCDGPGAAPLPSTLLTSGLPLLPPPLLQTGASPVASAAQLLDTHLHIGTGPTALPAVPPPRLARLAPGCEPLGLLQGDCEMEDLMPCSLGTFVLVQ
Chain of GST-tagged SIK2 (Q9H0K1 whole entry): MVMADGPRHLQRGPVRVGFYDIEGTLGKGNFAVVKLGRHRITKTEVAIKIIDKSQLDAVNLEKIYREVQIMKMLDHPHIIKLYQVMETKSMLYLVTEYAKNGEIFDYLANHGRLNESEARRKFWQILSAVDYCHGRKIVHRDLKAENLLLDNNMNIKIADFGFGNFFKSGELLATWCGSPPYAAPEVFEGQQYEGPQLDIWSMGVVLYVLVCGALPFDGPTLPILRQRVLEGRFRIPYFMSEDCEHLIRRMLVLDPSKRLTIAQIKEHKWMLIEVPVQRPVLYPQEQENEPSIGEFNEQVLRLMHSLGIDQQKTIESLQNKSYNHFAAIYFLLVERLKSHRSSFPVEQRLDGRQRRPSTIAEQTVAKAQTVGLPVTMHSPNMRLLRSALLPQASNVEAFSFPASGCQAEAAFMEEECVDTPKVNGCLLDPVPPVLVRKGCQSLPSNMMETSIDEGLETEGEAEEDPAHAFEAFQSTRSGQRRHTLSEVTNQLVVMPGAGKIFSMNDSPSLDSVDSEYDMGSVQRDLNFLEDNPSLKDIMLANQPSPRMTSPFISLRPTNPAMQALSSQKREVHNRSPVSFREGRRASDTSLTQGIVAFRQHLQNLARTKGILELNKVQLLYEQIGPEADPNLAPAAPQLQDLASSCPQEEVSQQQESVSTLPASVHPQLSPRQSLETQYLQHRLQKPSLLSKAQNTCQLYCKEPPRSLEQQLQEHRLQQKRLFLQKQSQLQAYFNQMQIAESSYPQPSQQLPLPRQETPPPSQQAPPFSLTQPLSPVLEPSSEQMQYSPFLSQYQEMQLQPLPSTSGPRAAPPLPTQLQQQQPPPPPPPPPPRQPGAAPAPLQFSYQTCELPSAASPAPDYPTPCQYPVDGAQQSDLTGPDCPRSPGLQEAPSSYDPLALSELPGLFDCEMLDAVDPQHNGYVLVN

Row | IC50 (GST-tagged SIK1) [nM] | IC50 [1] [nM] | IC50 (GST-tagged SIK3) [nM] | IC50 (GST-tagged SIK2) [nM] | Compound | TNF α increase inhibition ratio [2]
1 | 8 | 19 | 6.8 | 3.1 | CCCn1cc(-c2cc(C#N)c3c(-c4cc(OC)c5c(c4)[C@@H](C)CNC5=O)n(C)nc3c2)cn1 (single isomer, unassigned) [Example 106] | 47.2** %
2 | 398 | – | 6.5 | 22.7 | COc1cc(-c2cnc3cc(-c4cnn(C)c4)ccn23)cc2c1C(=O)N(C1CC1)CC2 [Comparative Example 3, 2-cyclopropyl-8-methoxy-6-[7-(1-methylpyrazol-4-yl)imidazo[1,2-a]pyridin-3-yl]-3,4-dihydroisoquinolin-1-one, reference compound] | –
3 | 0.4 | – | 2.9 | 1 | COc1cc(-c2c3c(OCc4cccnc4)cc(-c4cnn(C)c4)cc3nn2C)cc(OC(F)F)c1C(=O)N1CC(O)(C(F)(F)F)C1 [Example 34, [2-(difluoromethoxy)-6-methoxy-4-[2-methyl-6-(1-methylpyrazol-4-yl)-4-(pyridin-3-ylmethoxy)indazol-3-yl]phenyl]-[3-hydroxy-3-(trifluoromethyl)azetidin-1-yl]methanone] | –
4 | 5.4 | – | 7.1 | 8.5 | COc1cc(-c2c3c(C#N)cc(-c4cnn(CC(=O)N(C)C)c4)cc3nn2C)cc(OC(F)F)c1C(=O)N1CC(O)(C(F)(F)F)C1 [Example 17, 2-[4-[4-cyano-3-[3-(difluoromethoxy)-4-[3-hydroxy-3-(trifluoromethyl)azetidin-1-carbonyl]-5-methoxyphenyl]-2-methylindazol-6-yl]pyrazol-1-yl]-N,N-dimethylacetamide] | –
5 | 8.3 | – | 2 | 10.9 | COc1cc(-c2c3c(C(F)F)cc(-c4cn[nH]c4)cc3nn2C)cc(OC(F)F)c1C(=O)N1CC(O)(C(F)F)C1 [Example 69, [2-(difluoromethoxy)-4-[4-(difluoromethyl)-2-methyl-6-(1H-pyrazol-4-yl)indazol-3-yl]-6-methoxyphenyl]-[3-(difluoromethyl)-3-hydroxyazetidin-1-yl]methanone] | –
6 | 3.7 | – | 7.8 | 3.3 | COc1cc(-c2c3c(C#N)cc(-c4cnn(CC(F)F)c4)cc3nn2C)cc(OC(F)F)c1C(=O)N[C@@H]1C[C@@H]1F [Example 31, 4-[4-cyano-6-[1-(2,2-difluoroethyl)pyrazol-4-yl]-2-methylindazol-3-yl]-2-(difluoromethoxy)-N-[(1R, 2S)-2-fluorocyclopropyl]-6-methoxybenzamide] | –
7 | 3.6 | – | 2.4 | 8.8 | COc1cc(-c2c3c(OC(F)F)cc(-c4cnn(C)c4)cc3nn2C)cc(OC(F)F)c1C(=O)N1CC(O)(C(F)(F)F)C1 [Example 14, [2-(difluoromethoxy)-4-[4-(difluoromethoxy)-2-methyl-6-(1-methylpyrazol-4-yl)indazol-3-yl]-6-methoxyphenyl]-[3-hydroxy-3-(trifluoromethyl)azetidin-1-yl]methanone] | –
8 | 7600 | – | 198 | 369 | COc1cc(-c2c3ccc(OCCN4CCOCC4)cc3nn2C)cc(OC(F)F)c1C(=O)NC1CC1 [Comparative Example 7, N-cyclopropyl-2-(difluoromethoxy)-6-methoxy-4-(2-methyl-6-(2-morpholinoethoxy)-2H-indazol-3-yl)benzamide, reference compound] | –
9 | 5.1 | – | 7.9 | 1 | COc1cc(-c2c3c(OCC(F)(F)F)cc(-c4cnn(C)c4)cc3nn2C)cc(OC(F)F)c1C(N)=O [Example 157, 2-(difluoromethoxy)-6-methoxy-4-[2-methyl-6-(1-methylpyrazol-4-yl)-4-(2,2,2-trifluoroethoxy)indazol-3-yl]benzamide] | –
10 | 13.7 | – | 6.3 | 6.7 | COc1cc(-c2c3c(C#N)cc(-c4cnn(C[C@H](C)O)c4)cc3nn2C)cc(OC(F)F)c1C(=O)NCC1(F)CC1 [Example 58, 4-[4-cyano-6-[1-[(2S)-2-hydroxypropyl]pyrazol-4-yl]-2-methylindazol-3-yl]-2-(difluoromethoxy)-N-[(1-fluorocyclopropyl)methyl]-6-methoxybenzamide] | –
11 | 6.8 | – | 2.7 | 1.4 | CCCCn1cc(-c2cc(C#N)c3c(-c4cc(OC)c5c(c4)[C@@H](C)CNC5=O)n(C)nc3c2)cn1 (single isomer, unassigned) [Example 168] | –
12 | 1.9 | – | 12.9 | 3 | COc1cc(-c2c3c(OCc4ccncc4)cc(-c4cnn(C)c4)cc3nn2C)cc(OC(F)F)c1C(=O)N1CC(O)(C(F)(F)F)C1 [Example 35, [2-(difluoromethoxy)-6-methoxy-4-[2-methyl-6-(1-methylpyrazol-4-yl)-4-(pyridin-4-ylmethoxy)indazol-3-yl]phenyl]-[3-hydroxy-3-(trifluoromethyl)azetidin-1-yl]methanone] | –
13 | 19.8 | – | 5.9 | 13.5 | CC[C@H](O)Cn1cc(-c2cc(C#N)c3c(-c4cc(OC)c(C(=O)NCC5(F)CC5)c(OC(F)F)c4)n(C)nc3c2)cn1 [Example 93, 4-[4-cyano-6-[1-[(2S)-2-hydroxybutyl]pyrazol-4-yl]-2-methylindazol-3-yl]-2-(difluoromethoxy)-N-[(1-fluorocyclopropyl)methyl]-6-methoxybenzamide] | –
14 | 8.5 | – | 2.7 | 1.8 | COc1cc(-c2c3c(C#N)cc(-c4cnn(C[C@@H](C)O)c4)cc3nn2C)cc(OC(F)F)c1C(=O)N[C@@H]1CC1(F)F [Example 153, 4-[4-cyano-6-[1-[(2R)-2-hydroxypropyl]pyrazol-4-yl]-2-methylindazol-3-yl]-N-[(1R)-2,2-difluorocyclopropyl]-2-(difluoromethoxy)-6-methoxybenzamide] | –
15 | 8.6 | – | 2.6 | 2.3 | CCn1cc(-c2cc(C#N)c3c(-c4cc(OC(F)F)c5c(c4)[C@@H](C)CNC5=O)n(C)nc3c2)cn1 (single isomer, unassigned) [Example 174] | –
16 | 6.8 | – | 17.1 | 5 | COc1cc(-c2c3c(OCc4ccc(C)nc4)cc(-c4cnn(C)c4)cc3nn2C)cc(OC(F)F)c1C(=O)N1CC(O)(C(F)(F)F)C1 [Example 50, [2-(difluoromethoxy)-6-methoxy-4-[2-methyl-6-(1-methylpyrazol-4-yl)-4-[(6-methylpyridin-3-yl)methoxy]indazol-3-yl]phenyl]-[3-hydroxy-3-(trifluoromethyl)azetidin-1-yl]methanone] | –
17 | 4.9 | – | 2.1 | 3.7 | COc1cc(-c2c3c(C#N)cc(/C=C/c4cnn(C)c4)cc3nn2C)cc(OC(F)F)c1C(=O)N[C@@H]1C[C@@H]1F [Example 40, 4-[4-cyano-2-methyl-6-[(E)-2-(1-methylpyrazol-4-yl)ethenyl]indazol-3-yl]-2-(difluoromethoxy)-N-[(1R,2S)-2-fluorocyclopropyl]-6-methoxybenzamide] | –
18 | 16 | – | 16.7 | 7.5 | COc1cc(-c2c3c(C#N)cc(-c4cnn(CC5CCCS5(=O)=O)c4)cc3nn2C)cc(OC(F)F)c1C(=O)NCC1(F)CC1 (centres unmarked) [Example 82, 4-[4-cyano-6-[1-[(1,1-dioxothiolan-2-yl)methyl]pyrazol-4-yl]-2-methylindazol-3-yl]-2-(difluoromethoxy)-N-[(1-fluorocyclopropyl)methyl]-6-methoxybenzamide] | –
19 | 2.1 | – | 5 | 2.5 | COc1cc(-c2c3c(C#N)cc(-c4cnn(C)c4)cc3nn2C)cc(OC(F)F)c1C(=O)N[C@@H]1CC1(F)F [Example 23, 4-[4-cyano-2-methyl-6-(1-methylpyrazol-4-yl)indazol-3-yl]-N-[(1R)-2,2-difluorocyclopropyl]-2-(difluoromethoxy)-6-methoxybenzamide] | –
